According to patent US10183015B2, “Heterocyclic compounds and methods of use” (Medivation Technologies LLC, priority 2015, dated 2019):
Where “and” joins values, the source holds several entries; their conditions need not be identical. Equal entries are not always repeated.

Key:
[1] = tested on: diet-induced NASH obese insulin resistant mice; experiment: Diet-induced NASH (DIN) obese insulin-resistant mouse model: plasma ALT and AST; type: in vivo; settings: for ALAT area under the curve / ASAT area under the curve / ALAT, days of treatment 0 / ASAT, days of treatment 0 / ALAT, days of treatment 14 / ASAT, days of treatment 14 / ALAT, days of treatment 28 / ASAT, days of treatment 28 / ALAT, days of treatment 42 / ASAT, days of treatment 42 / ALAT, days of treatment 56 / ASAT, days of treatment 56 / ALAT, days of treatment 70 / ASAT, days of treatment 70: plasma; for ALAT area under the curve / ASAT area under the curve: 70-day treatment; for ALAT area under the curve / ASAT area under the curve / ALAT, days of treatment 0 / ASAT, days of treatment 0: 20 mg/kg; for ALAT, days of treatment 0 / ASAT, days of treatment 0: day 0 (baseline); for ALAT, days of treatment 14 / ASAT, days of treatment 14: day 14, 20 mg/kg; for ALAT, days of treatment 28 / ASAT, days of treatment 28: day 28, 20 mg/kg; for ALAT, days of treatment 42 / ASAT, days of treatment 42: day 42, 20 mg/kg; for ALAT, days of treatment 56 / ASAT, days of treatment 56: day 56, 20 mg/kg; for ALAT, days of treatment 70 / ASAT, days of treatment 70: day 70, 20 mg/kg
Description: Male C57Bl/6J mice (8 weeks old) were housed in enriched ventilated cages (31×12.5×12.7 cm) throughout the experimental phase. Animals' cages litters were changed at least once a week. Animal were housed 5 per cage on inverted 12-hour light cycle (at 09:00 am lights off), 22±2° C. and 55±10% relative humidity. The acclimation period was 20 days. During the acclimation period, all mice were fed a standard diet (RM1 (E) 801492, SDS) and tap water ad libitum. After the acclimation period, mice were fed with the DIN diet (60% fat, cholesterol enriched) and fructose-enriched tap water ad libitum until the end of the experiment.
At 6 weeks of diet, mice were 4-hour fasted (09:00 am to 1:00 pm) and blood (150 μl/EDTA) was collected at 01:00 pm by retro-orbital bleeding under isoflurane anesthesia. Mice were then allocated in 2 homogenous groups (n=12/group) according to their plasma levels of ALT (average levels: 685U/L), AST (average levels: 627U/L) and HOMA-IR index (average value: 4.7), into 2 homogenous groups (see values at day 0 in Tables 15A and 15B ALT/AST and Tables 16A and 16B for HOMA-IR). Mice were then treated once daily by oral gavage with vehicle (Group 1) or Compound #37 at 20 mg/kg (Group 2) for 70 days.
To investigate whether Compound #37 improves pre-existing steatosis/NASH pathology, a study was conducted using a 16-week diet-induced NASH mouse model. In this model, mice develop steatosis that progresses with inflammation and fibrosis that mimic many of the observed pathologies in human nonalcoholic fatty liver disease (NAFLD) and NASH (Hebbard & George, 2010). For 6 weeks, mice were fed a high-fat, high-cholesterol diet and provided drinking water containing fructose to induce liver pathology (Charlton et al, 2011). After 6 weeks, the mice were divided into 2 groups with similar mean aspartate aminotransferase (AST) and alanine aminotransferase (ALT) values (n=12 mice), although it should be noted that AST and ALT concentrations within both groups were higher and with greater variability than anticipated (e.g., mean ALT 677 U/L [SD, 401 U/L] in the vehicle control group and 693 U/L [SD, 365 U/L] in the Compound #37 group). After the animals were divided into 2 groups, the diet was continued for 10 additional weeks during which time 1 group received vehicle and the other was treated with 20 mg/kg/day Compound #37.

[2] = tested on: 60% high fat Paigen diet induced NASH mouse model; experiment: Short-term (21 day) Paigen-diet NASH mouse model: plasma ALT, AST, triglycerides, cholesterol, free fatty acids; type: in vivo
Description: To investigate whether Compound #37 prevents the development of pathology associated with NASH and steatosis in an acute exploratory disease model, a study was conducted using a diet-induced acute liver steatosis model in mice. As described below, in this study, C57BL/6J mice were initiated on the Paigen diet and simultaneously treated with Compound #37 (5, 20, and 40 mg/kg/day) or vehicle control (20% HPβCD 10 mL/kg/day) by oral gavage for 21 days.
After acclimation, 8-week old male C57Bl/6J mice (Charles River) weighing about 25 g were randomized in 4 groups according their body weight and treated once daily around noon by oral gavage with vehicle, or Compound #37 at various for 21 days as follows: Group 1: vehicle-20% (2-hydroxypropyl)-β-cyclodextrin (HP-β-CD) (n=10); Group 2: Compound #37, 5 mg/kg (n=10) Group 3: Compound #37, 20 mg/kg (n=10) Group 4: Compound #37, 40 mg/kg (n=10). During the treatment period, body weight and food intake (measured over 24h) were measured 3 times per week and once a week, respectively. During the acclimation, all mice were fed a standard diet (Special Diets Services RM1 (E), product no. 801492) and tap water ad libitum. After the acclimation period, mice were fed until the end of the experiment with a 60% high fat Paigen diet (60 kcal % fat, 1.25% cholesterol, and 0.5% cholate; D11061901, Research Diet) and tap water ad libitum.
One hour after the last dosing (noon), blood was collected by retro-orbital bleeding (maximal volume on EDTA) under isoflurane anesthesia to measure plasma triglycerides, total cholesterol, non-esterified fatty acid, ALT and AST. Mice were then sacrificed by cervical dislocation, and livers were harvested and weighed. Liver samples from the same lobe were dissected, frozen, and analyzed as described below.
Data Analysis. Values are presented as mean±standard error of the mean (sem). To assess the compound effect, treated groups were compared to vehicle with a 1-way ANOVA+Dunnett's post-test. […] For RT-qPCR and score Kruskall-Wallis test was performed with Dunns post-test. For body weight evolution the treated groups were compared to vehicle with a 2-way ANOVA with Bonferroni post-test. For each test, a p<0.05 was considered significant.

[3] = 5 mg/kg p.o. daily, 21 days of diet and treatment, group mean
[4] = 5 mg/kg p.o. daily, 21 days of diet and treatment, individual animals
[5] = 20 mg/kg p.o. daily, 21 days of diet and treatment, group mean
[6] = 20 mg/kg p.o. daily, 21 days of diet and treatment, individual animals
[7] = 40 mg/kg p.o. (stopped after 4 administrations), 9 days of diet, group mean
[8] = 40 mg/kg p.o. (stopped after 4 administrations), 9 days of diet, individual animals

Compound: CC(C)Cc1cc(-c2nc(-c3ccc(NS(=O)(=O)C(F)(F)F)cc3Cl)cs2)ccn1 [Compound 37, N-(3-chloro-4-(2-(2-isobutylpyridin-4-yl)thiazol-4-yl)phenyl)-1,1,1-trifluoromethanesulfonamide]
- hepatotoxicity (transaminase concentrations) ([1]; 20 mg/kg/day, 10 weeks): No evidence of hepatotoxicity
- ALAT area under the curve ([1]; group mean, n 11): 12252 U/L · day
- ASAT area under the curve ([1]; group mean, n 11): 10763 U/L · day
- ALAT area under the curve ([1]; individual animals): 18578 U/L · day and 17206 U/L · day and 11865 U/L · day and 9163 U/L · day and 5418 U/L · day and 9331 U/L · day and 17759 U/L · day and 11949 U/L · day and 16954 U/L · day and 8862 U/L · day and 7686 U/L · day
- ASAT area under the curve ([1]; individual animals): 18662 U/L · day and 15001 U/L · day and 8456 U/L · day and 8141 U/L · day and 5607 U/L · day and 6573 U/L · day and 11550 U/L · day and 10388 U/L · day and 13167 U/L · day and 11690 U/L · day and 9163 U/L · day
- ALAT, days of treatment 0 ([1]; group mean, n 12): 693 U/L
- ASAT, days of treatment 0 ([1]; group mean, n 12): 615 U/L
- ALAT, days of treatment 0 ([1]; individual animals): 1520 U/L and 698 U/L and 955 U/L and 551 U/L and 226 U/L and 365 U/L and 625 U/L and 563 U/L and 830 U/L and 662 U/L and 260 U/L and 1065 U/L
- ASAT, days of treatment 0 ([1]; individual animals): 1440 U/L and 875 U/L and 584 U/L and 435 U/L and 217 U/L and 269 U/L and 464 U/L and 500 U/L and 725 U/L and 730 U/L and 283 U/L and 860 U/L
- ALAT, days of treatment 14 ([1]; group mean, n 12): 255 U/L
- ASAT, days of treatment 14 ([1]; group mean, n 12): 249 U/L
- ALAT, days of treatment 14 ([1]; individual animals): 250 U/L and 252 U/L (2×) and 218 U/L and 200 U/L and 92 U/L and 198 U/L and 256 U/L and 410 U/L and 690 U/L and 134 U/L and 106 U/L
- ASAT, days of treatment 14 ([1]; individual animals): 296 U/L and 268 U/L and 206 U/L and 228 U/L and 124 U/L and 150 U/L and 190 U/L and 288 U/L and 440 U/L and 248 U/L and 428 U/L and 126 U/L
- ALAT, days of treatment 28 ([1]; group mean, n 12): 146 U/L
- ASAT, days of treatment 28 ([1]; group mean, n 12): 146 U/L
- ALAT, days of treatment 28 ([1]; individual animals): 176 U/L and 118 U/L and 96 U/L and 68 U/L and 58 U/L and 316 U/L and 226 U/L and 154 U/L and 160 U/L and 208 U/L and 38 U/L and 136 U/L
- ASAT, days of treatment 28 ([1]; individual animals): 238 U/L and 98 U/L and 84 U/L and 76 U/L and 80 U/L and 168 U/L and 140 U/L and 102 U/L and 222 U/L and 288 U/L and 68 U/L and 190 U/L
- ALAT, days of treatment 42 ([1]; group mean, n 12): 143 U/L
- ASAT, days of treatment 42 ([1]; group mean, n 12): 136 U/L
- ALAT, days of treatment 42 ([1]; individual animals): 68 U/L and 280 U/L and 52 U/L and 50 U/L (2×) and 136 U/L and 58 U/L and 168 U/L and 92 U/L and 66 U/L and 370 U/L and 322 U/L
- ASAT, days of treatment 42 ([1]; individual animals): 88 U/L and 132 U/L and 80 U/L and 110 U/L and 140 U/L and 96 U/L and 200 U/L and 106 U/L and 130 U/L and 76 U/L and 174 U/L and 296 U/L
- ALAT, days of treatment 56 ([1]; group mean, n 11): 136 U/L
- ASAT, days of treatment 56 ([1]; group mean, n 11): 126 U/L
- ALAT, days of treatment 56 ([1]; individual animals): 276 U/L and 80 U/L and 48 U/L and 68 U/L and 52 U/L and 54 U/L and 112 U/L and 130 U/L and 534 U/L and 70 U/L and 74 U/L
- ASAT, days of treatment 56 ([1]; individual animals): 346 U/L and 122 U/L and 92 U/L and 108 U/L and 60 U/L and 96 U/L and 132 U/L and 112 U/L and 182 U/L and 130 U/L and 164 U/L
- ALAT, days of treatment 70 ([1]; group mean, n 11): 413 U/L
- ASAT, days of treatment 70 ([1]; group mean, n 11): 281 U/L
- ALAT, days of treatment 70 ([1]; individual animals): 364 U/L and 1030 U/L and 326 U/L and 372 U/L and 210 U/L and 342 U/L and 1150 U/L and 358 U/L and 142 U/L (2×) and 104 U/L
- ASAT, days of treatment 70 ([1]; individual animals): 258 U/L and 648 U/L and 162 U/L and 206 U/L and 180 U/L and 160 U/L and 524 U/L and 376 U/L and 182 U/L and 198 U/L and 192 U/L
- ALT (U/L) [2, 3]: 419.3 U/L
- AST (U/L) [2, 3]: 449.4 U/L
- AST/ALT ratio [2, 3]: 1.2
- ALT (U/L) [2, 4]: 382 U/L and 620 U/L and 346 U/L and 825 U/L and 267 U/L and 246 U/L and 255 U/L and 447 U/L and 435 U/L and 370 U/L
- AST (U/L) [2, 4]: 350 U/L and 416 U/L and 710 U/L and 405 U/L and 286 U/L and 392 U/L and 481 U/L and 528 U/L and 477 U/L
- AST/ALT ratio [2, 4]: 0.92 and 1.20 and 0.86 and 1.52 and 1.16 and 1.54 and 1.08 and 1.21 and 1.29
- ALT (U/L) [2, 5]: 403.5 U/L
- AST (U/L) [2, 5]: 431.2 U/L
- AST/ALT ratio [2, 5]: 1.1
- ALT (U/L) [2, 6]: 266 U/L and 587 U/L and 432 U/L and 413 U/L and 385 U/L and 338 U/L
- AST (U/L) [2, 6]: 362 U/L and 467 U/L and 344 U/L and 615 U/L and 424 U/L and 375 U/L
- AST/ALT ratio [2, 6]: 1.36 and 0.80 (2×) and 1.49 and 1.10 and 1.11
- ALT (U/L) [2, 7]: 7043.8 U/L
- AST (U/L) [2, 7]: 2685.0 U/L
- AST/ALT ratio [2, 7]: 0.8
- ALT (U/L) [2, 8]: 1095 U/L and 1160 U/L and 12560 U/L and 13360 U/L
- AST (U/L) [2, 8]: 1165 U/L and 1555 U/L and 3900 U/L and 4120 U/L
- AST/ALT ratio [2, 8]: 1.1 and 1.3 and 0.3 (2×)
- mean AST and ALT ([2]; 40 mg/kg, 4 surviving animals, sacrifice on day 9): > 2500 U/L
- ALT and AST levels ([2]; 40 mg/kg, day 9): very high
- ALT (U/L) Mean ([2]; Table B7, 5 mg/kg): 419.30 U/L
- AST (U/L) Mean ([2]; Table B7, 5 mg/kg): 449.44 U/L
- ALT (U/L) Mean ([2]; Table B7, 20 mg/kg): 403.50 U/L
- AST (U/L) Mean ([2]; Table B7, 20 mg/kg): 431.17 U/L
